According to US20150010928A1, “MEANS AND METHODS FOR ASSESSING AN ENDOCRINE DISEASE OR DISORDER” (priority 2012, published 2015):
Marks after values point to notes of the source that are not given here.

Test system: male rats
Experiment: Plasma metabolite profiling (GC-MS, LC-MS, SPE-LC-MS) in male rats dosed once daily over 28 days (OECD 407)
Format: in vivo, rat
Conditions: high dose; for 3-Methoxytyrosine / 3-O-Methylsphingosine (d18:1) / 5-O-Methylsphingosine (d18:1) / Androstenedione / Arachidonic acid (C20:cis[5,8,11,14]4) / Behenic acid (C22:0) / Cholesterol / Cysteine / Dodecanol / Eicosanoic acid (C20:0) / Galactose, lipid fraction / Glycerol phosphate, lipid fraction / Histidine / Indole-3-lactic acid / Lignoceric acid (C24:0) / Nervonic acid (C24:cis[15]1) / Noradrenaline (Norepinephrine) / Phosphate, lipid fraction / Phosphatidylcholine (C18:0, C18:2) / Phosphatidylcholine (C18:0, C20:3) / Phosphatidylcholine (C18:0, C22:6) / Phosphatidylcholine (C18:0,C18:1) / Phytosphingosine / Stearic acid (C18:0) / Testosterone / Threonine / Tricosanoic acid (C23:0) / Tryptophan / alpha-Tocopherol / beta-Sitosterol / dihomo-gamma-Linolenic acid (C20:cis[8,11,14]3) / erythro-Sphingosine (d18:1) / myo-Inositol-2-phosphate, lipid fraction / threo-Sphingosine (d18:1): Table 11a; for 3-Hydroxybutyrate / 4-Hydroxy-3-methoxyphenylglycol (HMPG) / 18-Hydroxy-11-deoxycorticosterone / 21-Hydroxyprogesterone (11-Deoxycorticosterone) / Citrate / Coenzyme Q9 / Coenzyme Q10 / Corticosterone / Metanephrine / Palmitoleic acid (C16:cis[9]1) / Phosphatidylcholine (C16:0, C16:0) / Progesterone / trans-4-Hydroxyproline: Table 11b; for 3-Hydroxybutyrate, ratio versus control / 18-Hydroxy-11-deoxycorticosterone, ratio versus control / Ceramide (d18:1, C24:1), ratio versus control / Coenzyme Q10, ratio versus control / Corticosterone, ratio versus control / Metanephrine, ratio versus control / Tricosanoic acid (C23:0), ratio versus control / alpha-Tocopherol, ratio versus control / trans-4-Hydroxyproline, ratio versus control: male rats, plasma
Outline: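 Polar and lipid fractions profiled by GC-MS and LC-MS/MRM, steroids by online SPE-LC-MS; pool-normalized data compared to controls by Welch test as treatment ratios and p-values.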

## CC(=O)O[C@]1(C(C)=O)CC[C@H]2[C@@H]3C=C(Cl)C4=CC(=O)[C@@H]5C[C@@H]5[C@]4(C)[C@H]3CC[C@@]21C [Cyproteron Acetate]
m7
  3-Methoxytyrosine: 1.37 *
  3-O-Methylsphingosine (d18:1): 1.73 *
  5-O-Methylsphingosine (d18:1): 1.83 *
  Androstenedione: 4.65^
  Arachidonic acid (C20:cis[5,8,11,14]4): 1.35 *
  Behenic acid (C22:0): 1.38 *
  Cholesterol: 1.33 *
  Cysteine: 1.3 *
  Dodecanol: 1.26 *
  Eicosanoic acid (C20:0): 1.06^
  Galactose, lipid fraction: 1.37 *
  Glycerol phosphate, lipid fraction: 1.57 *
  Histidine: 1.39 *
  Indole-3-lactic acid: 1.13 *
  Lignoceric acid (C24:0): 1.46 *
  Nervonic acid (C24:cis[15]1): 1.69 *
  Noradrenaline (Norepinephrine): 1.61 *
  Phosphate, lipid fraction: 1.32 *
  Phosphatidylcholine (C18:0, C18:2): 1.04 *
  Phosphatidylcholine (C18:0, C20:3): 1.03^
  Phosphatidylcholine (C18:0, C22:6): 1.31 *
  Phosphatidylcholine (C18:0,C18:1): 1.09 *
  Phytosphingosine: 1.05^
  Stearic acid (C18:0): 1.44 *
  Testosterone: 3.32^
  Threonine: 1.78 *
  Tricosanoic acid (C23:0): 1.48 *
  Tryptophan: 1.1 *
  alpha-Tocopherol: 1.22 *
  beta-Sitosterol: 2.11 *
  dihomo-gamma-Linolenic acid (C20:cis[8,11,14]3): 1.66 *
  erythro-Sphingosine (d18:1): 1.68 *
  myo-Inositol-2-phosphate, lipid fraction: 1.65 *
  threo-Sphingosine (d18:1): 1.39 *
  3-Hydroxybutyrate: 0.58 *
  4-Hydroxy-3-methoxyphenylglycol (HMPG): 1.11^
  18-Hydroxy-11-deoxycorticosterone: 0.03 *
  21-Hydroxyprogesterone (11-Deoxycorticosterone): 0.3 *
  Citrate: 1.24^
  Coenzyme Q9: 0.58 *
  Coenzyme Q10: 0.49 *
  Corticosterone: 0.04 *
  Metanephrine: 0.91^
  Palmitoleic acid (C16:cis[9]1): 0.88 *
  Phosphatidylcholine (C16:0, C16:0): 0.78 *
  Progesterone: 0.4 *
  trans-4-Hydroxyproline: 0.53 *
m14
  3-Methoxytyrosine: 1.81 *
  3-O-Methylsphingosine (d18:1): 2.19 *
  5-O-Methylsphingosine (d18:1): 2.18 *
  Androstenedione: 3.8 *
  Arachidonic acid (C20:cis[5,8,11,14]4): 2.03 *
  Behenic acid (C22:0): 1.52 *
  Cholesterol: 1.63 *
  Cysteine: 1.28 *
  Dodecanol: 1.71 *
  Eicosanoic acid (C20:0): 1.15
  Galactose, lipid fraction: 2.57 *
  Glycerol phosphate, lipid fraction: 2.05 *
  Histidine: 1.17
  Indole-3-lactic acid: 1.15 *
  Lignoceric acid (C24:0): 1.78 *
  Nervonic acid (C24:cis[15]1): 2.55 *
  Noradrenaline (Norepinephrine): 1.22
  Phosphate, lipid fraction: 1.8 *
  Phosphatidylcholine (C18:0, C18:2): 1.04
  Phosphatidylcholine (C18:0, C20:3): 1.16 *
  Phosphatidylcholine (C18:0, C22:6): 1.5 *
  Phosphatidylcholine (C18:0,C18:1): 1.48 *
  Phytosphingosine: 1.23 *
  Stearic acid (C18:0): 2.3 *
  Testosterone: 2.63 *
  Threonine: 2.58 *
  Tricosanoic acid (C23:0): 1.3 *
  Tryptophan: 1.11 *
  alpha-Tocopherol: 1.32 *
  beta-Sitosterol: 2.16 *
  dihomo-gamma-Linolenic acid (C20:cis[8,11,14]3): 2.78 *
  erythro-Sphingosine (d18:1): 1.92 *
  myo-Inositol-2-phosphate, lipid fraction: 2.78 *
  threo-Sphingosine (d18:1): 2 *
  3-Hydroxybutyrate: 0.73 *
  4-Hydroxy-3-methoxyphenylglycol (HMPG): 0.99^
  18-Hydroxy-11-deoxycorticosterone: 0.01 *
  21-Hydroxyprogesterone (11-Deoxycorticosterone): 0.41 *
  Citrate: 0.73 *
  Coenzyme Q9: 0.74 *
  Coenzyme Q10: 0.86^
  Corticosterone: 0.01 *
  Metanephrine: 0.66 *
  Palmitoleic acid (C16:cis[9]1): 0.74 *
  Phosphatidylcholine (C16:0, C16:0): 0.87 *
  Progesterone: 0.54 *
  trans-4-Hydroxyproline: 0.44 *
m28
  3-Methoxytyrosine: 2.05 *
  3-O-Methylsphingosine (d18:1): 2.98 *
  5-O-Methylsphingosine (d18:1): 2.54 *
  Androstenedione: 0.94^
  Arachidonic acid (C20:cis[5,8,11,14]4): 2.35 *
  Behenic acid (C22:0): 1.57 *
  Cholesterol: 1.97 *
  Cysteine: 1.54 *
  Dodecanol: 1.52 *
  Eicosanoic acid (C20:0): 1.71 *
  Galactose, lipid fraction: 1.68 *
  Glycerol phosphate, lipid fraction: 2.16 *
  Histidine: 1.37 *
  Indole-3-lactic acid: 1.15 *
  Lignoceric acid (C24:0): 1.9 *
  Nervonic acid (C24:cis[15]1): 2.83 *
  Noradrenaline (Norepinephrine): 1.39 *
  Phosphate, lipid fraction: 1.86 *
  Phosphatidylcholine (C18:0, C18:2): 1.03^
  Phosphatidylcholine (C18:0, C20:3): 1.18 *
  Phosphatidylcholine (C18:0, C22:6): 1.67 *
  Phosphatidylcholine (C18:0,C18:1): 1.55*
  Phytosphingosine: 1.68 *
  Stearic acid (C18:0): 2.71 *
  Testosterone: 0.56^
  Threonine: 1.73 *
  Tricosanoic acid (C23:0): 1.39 *
  Tryptophan: 1.14 *
  alpha-Tocopherol: 1.44 *
  beta-Sitosterol: 2.6 *
  dihomo-gamma-Linolenic acid (C20:cis[8,11,14]3): 4.01 *
  erythro-Sphingosine (d18:1): 2.2 *
  myo-Inositol-2-phosphate, lipid fraction: 3.26 *
  threo-Sphingosine (d18:1): 2.13 *
  3-Hydroxybutyrate: 0.68 *
  4-Hydroxy-3-methoxyphenylglycol (HMPG): 0.82 *
  18-Hydroxy-11-deoxycorticosterone: 0 *
  21-Hydroxyprogesterone (11-Deoxycorticosterone): 0.01 *
  Citrate: 0.81
  Coenzyme Q9: 0.59 *
  Coenzyme Q10: 0.7 *
  Corticosterone: 0 *
  Metanephrine: 0.58 *
  Palmitoleic acid (C16:cis[9]1): 1.42 *
  Phosphatidylcholine (C16:0, C16:0): 0.79 *
  Progesterone: 0.03 *
  trans-4-Hydroxyproline: 0.52 *
Day 7
  3-Hydroxybutyrate, ratio versus control: 0.58 *
  18-Hydroxy-11-deoxycorticosterone, ratio versus control: 0.08 *
  Ceramide (d18:1, C24:1), ratio versus control: 1
  Coenzyme Q10, ratio versus control: 0.49 *
  Corticosterone, ratio versus control: 0.04 *
  Metanephrine, ratio versus control: 0.91
  Tricosanoic acid (C23:0), ratio versus control: 1.48 *
  alpha-Tocopherol, ratio versus control: 1.22 *
  trans-4-Hydroxyproline, ratio versus control: 0.53 *
Day 14
  3-Hydroxybutyrate, ratio versus control: 0.73 *
  18-Hydroxy-11-deoxycorticosterone, ratio versus control: 0.08 *
  Ceramide (d18:1, C24:1), ratio versus control: 1.47 *
  Coenzyme Q10, ratio versus control: 0.86
  Corticosterone, ratio versus control: 0.01 *
  Metanephrine, ratio versus control: 0.66 *
  Tricosanoic acid (C23:0), ratio versus control: 1.3 *
  alpha-Tocopherol, ratio versus control: 1.32 *
  trans-4-Hydroxyproline, ratio versus control: 0.44 *
Day 28
  3-Hydroxybutyrate, ratio versus control: 0.68 *
  18-Hydroxy-11-deoxycorticosterone, ratio versus control: 0.02 *
  Ceramide (d18:1, C24:1), ratio versus control: 2.22 *
  Coenzyme Q10, ratio versus control: 0.7 *
  Corticosterone, ratio versus control: 0 *
  Metanephrine, ratio versus control: 0.58 *
  Tricosanoic acid (C23:0), ratio versus control: 1.39 *
  alpha-Tocopherol, ratio versus control: 1.44 *
  trans-4-Hydroxyproline, ratio versus control: 0.52 *
